Assays:
[1] = system: transition rate constant from G1 to cycling for HSPCs; test: Semi-mechanistic multi-compartment PK/PD model of hematopoiesis; design: species or system mouse, rat, and dog; details: conservative modification of literature estimate; elimination rate constant 1/h
Source text: Owing to the invasive nature of the PD marker collection (i.e. bone marrow aspiration), a semi-mechanistic PK/PD model based on animal PK/PD data and human PK data was developed to guide the selection of an optimal dose level for bone marrow aspiration in humans during dose escalation in the Phase I first-in-human study. The model was constructed using PK data from four species (mouse, rat, dog, and human) and PD data from three species (mouse, rat, and dog; Online Resources 1 and 2).
The PK/multi-compartment PD model was based on a myelosuppression model previously published by Friberg et al., with modifications. […] In the model used in the current study, stem cells and progenitor cells were separated into two compartments, with experimental data measured for each compartment. […] Another important deviation from the Friberg model was the mechanism postulated for the homeostasis of the […] (PMNs). We postulated that the feedback mechanism has a set point target and that deviations from that target would accelerate (in the case of too few PMNs) or decelerate (in the case of too many PMNs) the transition of G1-phase cells to S-phase cells in the stem cell population.
The model was constructed in two stages. First, preclinical PK data (e.g. doses, routes, and schedule of administration, observed concentrations) were compiled and modeled by allometric scaling. A sequential PK/PD modeling approach (population PK parameters and data approach) was then employed in which a semi-mechanistic PD model with various physiological compartments was created, and specific assumptions entered (Online Resource 3). Traditional forward addition/backward elimination was used for PK modeling. […] Many parameters in this complex model could not be estimated and were fixed either to the literature values or values selected on the basis of discussions with domain experts and sensitivity analysis. In preclinical animal models, the PD analysis modeled bone marrow cells positive for 5′-ethynyl-2′-deoxyuridine (EdU) and peripheral neutrophil counts simultaneously. […]

[2] = cited from earlier work

For `O=c1[nH]cc(F)c(=O)[nH]1` [5-FU, 5-fluorouracil, reference compound], the “pharmacologic activity half-life of 5-FU” value [1] is listed as 42 min and the “half-life of 5-FU, literature estimate” value [2] is listed as 8 to 20 min.

Reference: publication PMC8026479 (Cancer Chemotherapy and Pharmacology, 2021)
